In PubChem BioAssay (NCI):
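Five compound concentrations were applied to cells in 96-well plates for 48 hours; endpoints were derived by simple linear interpolation of the resulting dose-response curve. At the GI50, growth is halved. TGI: concentration producing complete growth inhibition.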

Key:
Experiment in all cases: NCI anticancer screen, dose series, 48 h
786-0 renal = system: 786-0 renal
A498 renal = system: A498 renal
A549 NSCLC = system: A549 NSCLC
ACHN renal = system: ACHN renal
BT-549 breast = system: BT-549 breast
CAKI-1 renal = system: CAKI-1 renal
CCRF-CEM leukemia = system: CCRF-CEM leukemia
COLO 205 colon = system: COLO 205 colon
DU-145 prostate = system: DU-145 prostate
EKVX NSCLC = system: EKVX NSCLC
HCC-2998 colon = system: HCC-2998 colon
HCT-116 colon = system: HCT-116 colon
HCT-15 colon = system: HCT-15 colon
HL-60(TB) leukemia = system: HL-60(TB) leukemia
HOP-62 NSCLC = system: HOP-62 NSCLC
HOP-92 NSCLC = system: HOP-92 NSCLC
HS 578T breast = system: HS 578T breast
HT29 colon = system: HT29 colon
IGROV1 ovarian = system: IGROV1 ovarian
K-562 leukemia = system: K-562 leukemia
KM12 colon = system: KM12 colon
LOX IMVI melanoma = system: LOX IMVI melanoma
M14 melanoma = system: M14 melanoma
MALME-3M melanoma = system: MALME-3M melanoma
MCF7 breast = system: MCF7 breast
MDA-MB-231 breast = system: MDA-MB-231 breast
MDA-MB-435 = system: MDA-MB-435
MOLT-4 leukemia = system: MOLT-4 leukemia
NCI-H226 lung = system: NCI-H226 lung
NCI-H23 lung = system: NCI-H23 lung
NCI-H460 lung = system: NCI-H460 lung
NCI-H522 lung = system: NCI-H522 lung
NCI/ADR-RES ovarian = system: NCI/ADR-RES ovarian
OVCAR-3 ovarian = system: OVCAR-3 ovarian
OVCAR-4 ovarian = system: OVCAR-4 ovarian
OVCAR-5 ovarian = system: OVCAR-5 ovarian
OVCAR-8 ovarian = system: OVCAR-8 ovarian
PC-3 prostate = system: PC-3 prostate
RPMI-8226 leukemia = system: RPMI-8226 leukemia
RXF 393 renal = system: RXF 393 renal
SF-268 CNS = system: SF-268 CNS
SF-295 CNS = system: SF-295 CNS
SF-539 CNS = system: SF-539 CNS
SK-MEL-2 melanoma = system: SK-MEL-2 melanoma
SK-MEL-28 melanoma = system: SK-MEL-28 melanoma
SK-MEL-5 melanoma = system: SK-MEL-5 melanoma
SK-OV-3 ovarian = system: SK-OV-3 ovarian
SN12C renal = system: SN12C renal
SNB-75 CNS = system: SNB-75 CNS
SR leukemia = system: SR leukemia
SW-620 colon = system: SW-620 colon
T-47D breast = system: T-47D breast
U251 CNS = system: U251 CNS
UACC-257 melanoma = system: UACC-257 melanoma
UACC-62 melanoma = system: UACC-62 melanoma
UO-31 renal = system: UO-31 renal
SNB-19 CNS = system: SNB-19 CNS
TK-10 renal = system: TK-10 renal

## COc1cccc2c(=O)c3c(sc12)c(NCCCNCCO)nc1ccccc13
786-0 renal
  GI50: 1.75 µM
  TGI: 3.25 µM
A498 renal
  GI50: 1.56 µM
  TGI: 3.3 µM
A549 NSCLC
  GI50: 1.42 µM
  TGI: 3.11 µM
ACHN renal
  GI50: 1.35 µM
  TGI: 2.67 µM
BT-549 breast
  GI50: 5.29 µM
  TGI: 18.6 µM
CAKI-1 renal
  GI50: 1.18 µM
  TGI: 2.5 µM
CCRF-CEM leukemia
  GI50: 1.53 µM
  TGI: 3.18 µM
COLO 205 colon
  GI50: 1.45 µM
  TGI: 3.09 µM
DU-145 prostate
  GI50: 1.65 µM
  TGI: 3.11 µM
EKVX NSCLC
  GI50: 1.52 µM
  TGI: 3.05 µM
HCC-2998 colon
  GI50: 1.59 µM
  TGI: 3.21 µM
HCT-116 colon
  GI50: 1.41 µM
  TGI: 2.74 µM
HCT-15 colon
  GI50: 1.51 µM
  TGI: 3.02 µM
HL-60(TB) leukemia
  GI50: 1.73 µM
  TGI: 3.5 µM
HOP-62 NSCLC
  GI50: 1.2 µM
  TGI: 2.81 µM
HOP-92 NSCLC
  GI50: 1.32 µM
  TGI: 13.1 µM
HS 578T breast
  GI50: 1.65 µM
  TGI: 4.07 µM
HT29 colon
  GI50: 1.54 µM
  TGI: 3.75 µM
IGROV1 ovarian
  GI50: 1.16 µM
  TGI: 2.58 µM
K-562 leukemia
  GI50: 1.42 µM
  TGI: 3.68 µM
KM12 colon
  GI50: 1.72 µM
  TGI: 3.23 µM
LOX IMVI melanoma
  GI50: 1.48 µM
  TGI: 2.96 µM
M14 melanoma
  GI50: 1.7 µM
  TGI: 3.22 µM
MALME-3M melanoma
  GI50: 1.64 µM
  TGI: 3.15 µM
MCF7 breast
  GI50: 1.46 µM
  TGI: 3 µM
MDA-MB-231 breast
  GI50: 1.35 µM
  TGI: 2.86 µM
MDA-MB-435
  GI50: 1.72 µM
  TGI: 3.2 µM
MOLT-4 leukemia
  GI50: 1.58 µM
  TGI: 3.31 µM
NCI-H226 lung
  GI50: 1.6 µM
  TGI: 3.46 µM
NCI-H23 lung
  GI50: 1.64 µM
  TGI: 3.27 µM
NCI-H460 lung
  GI50: 1.54 µM
  TGI: 3.15 µM
NCI-H522 lung
  GI50: 1.58 µM
  TGI: 3.45 µM
NCI/ADR-RES ovarian
  GI50: 1.81 µM
  TGI: 3.94 µM
OVCAR-3 ovarian
  GI50: 1.64 µM
  TGI: 3.16 µM
OVCAR-4 ovarian
  GI50: 1.63 µM
  TGI: 3.38 µM
OVCAR-5 ovarian
  GI50: 1.58 µM
  TGI: 3.16 µM
OVCAR-8 ovarian
  GI50: 1.78 µM
  TGI: 3.97 µM
PC-3 prostate
  GI50: 1.23 µM
  TGI: 2.7 µM
RPMI-8226 leukemia
  GI50: 1.73 µM
  TGI: 3.71 µM
RXF 393 renal
  GI50: 1.46 µM
  TGI: 2.84 µM
SF-268 CNS
  GI50: 1.59 µM
  TGI: 3.33 µM
SF-295 CNS
  GI50: 1.71 µM
  TGI: 3.24 µM
SF-539 CNS
  GI50: 1.68 µM
  TGI: 3.1 µM
SK-MEL-2 melanoma
  GI50: 1.83 µM
  TGI: 3.74 µM
SK-MEL-28 melanoma
  GI50: 1.9 µM
  TGI: 3.46 µM
SK-MEL-5 melanoma
  GI50: 1.69 µM
  TGI: 3.11 µM
SK-OV-3 ovarian
  GI50: 3.39 µM
  TGI: 19.4 µM
SN12C renal
  GI50: 1.51 µM
  TGI: 3.06 µM
SNB-75 CNS
  GI50: 0.964 µM
  TGI: 7.44 µM
SR leukemia
  GI50: 1.45 µM
  TGI: 3.83 µM
SW-620 colon
  GI50: 1.38 µM
  TGI: 2.9 µM
T-47D breast
  GI50: 1.48 µM
  TGI: 3.48 µM
U251 CNS
  GI50: 1.53 µM
  TGI: 3.02 µM
UACC-257 melanoma
  GI50: 1.94 µM
  TGI: 3.79 µM
UACC-62 melanoma
  GI50: 1.6 µM
  TGI: 3.03 µM
UO-31 renal
  GI50: 1.03 µM
  TGI: 2.28 µM

## C/C(=C\CO)CC/C=C(\C)CNc1ccc([N+](=O)[O-])cc1
786-0 renal
  TGI: > 100 µM
A549 NSCLC
  TGI: > 100 µM
ACHN renal
  TGI: > 100 µM
BT-549 breast
  TGI: 37.5 µM
CAKI-1 renal
  TGI: > 100 µM
COLO 205 colon
  TGI: > 100 µM
DU-145 prostate
  TGI: > 100 µM
EKVX NSCLC
  TGI: > 100 µM
HCT-116 colon
  TGI: > 100 µM
HCT-15 colon
  TGI: > 100 µM
HL-60(TB) leukemia
  TGI: 57.2 µM
HOP-62 NSCLC
  TGI: > 100 µM
HS 578T breast
  TGI: 71.6 µM
HT29 colon
  TGI: > 100 µM
IGROV1 ovarian
  TGI: > 100 µM
K-562 leukemia
  TGI: 66.5 µM
KM12 colon
  TGI: 64.2 µM
LOX IMVI melanoma
  TGI: > 100 µM
M14 melanoma
  TGI: > 100 µM
MALME-3M melanoma
  TGI: 34.6 µM
MCF7 breast
  TGI: > 100 µM
MDA-MB-231 breast
  TGI: > 100 µM
MDA-MB-435
  TGI: 84.9 µM
MOLT-4 leukemia
  TGI: 18.4 µM
NCI-H226 lung
  TGI: > 100 µM
NCI-H23 lung
  TGI: 57.7 µM
NCI-H460 lung
  TGI: > 100 µM
NCI-H522 lung
  TGI: 66.8 µM
NCI/ADR-RES ovarian
  TGI: 64.5 µM
OVCAR-3 ovarian
  TGI: 48.2 µM
OVCAR-4 ovarian
  TGI: > 100 µM
OVCAR-5 ovarian
  TGI: > 100 µM
OVCAR-8 ovarian
  TGI: > 100 µM
PC-3 prostate
  TGI: 66.2 µM
RXF 393 renal
  TGI: > 100 µM
SF-268 CNS
  TGI: > 100 µM
SF-295 CNS
  TGI: > 100 µM
SF-539 CNS
  TGI: > 100 µM
SK-MEL-2 melanoma
  TGI: 79.5 µM
SK-MEL-28 melanoma
  TGI: > 100 µM
SK-MEL-5 melanoma
  TGI: 25.6 µM
SK-OV-3 ovarian
  TGI: > 100 µM
SN12C renal
  TGI: > 100 µM
SNB-19 CNS
  TGI: > 100 µM
SNB-75 CNS
  TGI: > 100 µM
SR leukemia
  TGI: 27.1 µM
SW-620 colon
  TGI: > 100 µM
T-47D breast
  TGI: 80 µM
TK-10 renal
  TGI: 46.7 µM
U251 CNS
  TGI: > 100 µM
UACC-257 melanoma
  TGI: 76.2 µM
UACC-62 melanoma
  TGI: > 100 µM
UO-31 renal
  TGI: 45.9 µM
